Test results as given in patent USRE29337E, “Dicarboxylic acid soaps” (priority 1976, dated 1977).

Experiments:
[1] = Shampoo formulations, soap content (Example 9); format: physicochemical; details: 99% solids
Excerpt: A product similar to the liquid soaps in composition is shampoo. Basically, shampoos are simply perfumed soap solutions which need to lather easily and which have a fairly high soap content. Consequently, most shampoos consist from 50% to 100% of the solids as coconut fatty acid soaps. With such a formulation a viscous potassium soap of about 35% real soap (solids) can be prepared. If the triethanolamine soap is used, a 40% real soap may be formulated. As is obvious from the earlier discussion, C21 dicarboxylic acid soap would allow for greater flexibility in the amount of soap present in the shampoo and also allow for the utility of a lower priced cation, sodium.
An area closely related to the liquid soaps is shampoos. The formulations are similar but, since profuse sudsing is desired in shampoos and since low viscosity is not critical, the real soap content is more than twice as high. To get 35% soap in a formulation, coconut fatty acids or a blend of 50% coconut-50% oleic must be used. A 40% soap shampoo can be prepared using triethanolamine rather than potassium hydroxide to form the soap. […] C21 dicarboxylic acid has a major economic advantage in this application since sodium hydroxide could be used instead of potassium hydroxide.

[2] = one-half of the carboxyl groups as carboxylate anions
Excerpt: Since each molecule of C21 dicarboxylic acid has two carboxyl groups of varying acidity it is possible to convert the most acidic of these to the soap and the molecule becomes water-soluble leaving a free acid group on each molecule. […] A soap solution of C21 dicarboxylic acid can be prepared at any pH above 6.5, so in the case of amine soaps one can prepare the soap in such a way as to have free acid groups rather than excess amine, so there is no amine odor.
Of course, these soaps all have a pH of about 6.7 and have one free carboxylic acid group in solution.
Since the C21 dicarboxylic acid has two acid groups of different strengths, it is very easy to prepare the mono or half soap of the diacid.

[3] = Liquid soap formulations (Example 8); format: physicochemical; details: for pH of formulation: liquid soap formulations, excess base kept very low; for compatibility of pine oil with soap formulation: pine oil at 3% addition; for state of liquid soap: sodium hydroxide substituted for potassium hydroxide
Protocol: The formulation used was 12% coconut fatty acids, 3% soya or tall oil fatty acid, 4.4% KOH, 1% KCL, 80% water and a perfume as desired. In all of the soaps pine oil was added as the perfume at 3% addition.
The pine oil was compatible with the C21 dicarboxylic acid soap formulation. Of course, with C21 dicarboxylic acid soap much more concentrated, fluid soaps were prepared.
To further test the advantages of C21 dicarboxylic acid soap in liquid soaps, sodium hydroxide was substituted for the potassium hydroxide in each of the formulations mentioned above. […] In all of these formulations the excess base was kept at a very low level so that the pH's were about 9 for the C21 dicarboxylic acid and coconut fatty acid systems and about 11 for the oleic acid systems.

[4] = Viscosity vs percentage real soap, Brookfield viscometer (Example 4, FIGURE); format: physicochemical
Excerpt: A property of the soaps which points up this solubility advantage of C21 dicarboxylic acid soap and which is also important for C21 dicarboxylic acid utility is the viscosity of the soap. […] The solubility of the various soaps may be illustrated by the viscosity of the soaps which is shown in the accompanying figure. […] The coconut fatty acid potassium soap is somewhat poorer than the C21 dicarboxylic acid soap since its viscosity goes above twenty centipoises at 30% real soap.
This example illustrates a comparison of viscosity changes with potassium solids. Liquid soaps of fatty acids must be fairly fluid for ease in dispensing and using them. Therefore, a measure of the change in viscosity of a soap solution as percentage soap present increases is an easy method for determining the concentration of soap that can be used. The curves in the accompanying FIGURE show this relationship. A Brookfield viscometer was used to determine these curves at 25° C. […] The fact that 50% oleic acid/50% coconut soap is required to obtain a viscosity of 20 cps. at 30% real soap; whereas only 25% C21 dicarboxylic acid soap/75% tall oil fatty acid is needed to reach the same viscosity level is typical of the significance of the C21 dicarboxylic acid soaps.

[5] = Solubilities of various fatty acid soaps in water (Example 1); format: physicochemical
Protocol: Likewise, just as the type of fatty acid used influences soap properties, so does the choice of neutralizing agent. Therefore, various available inorganic alkalis were also compared.
The procedure for making the fatty acid soaps was to dissolve the inorganic alkali in the prescribed amount of water, heating to 150° F. The fatty acid was slowly added to the alkali solution and agitated for a few minutes.

[6] = potassium soaps; cited from earlier work
[7] = format: physicochemical
Excerpt: is often desirable when making liquid soaps, as well as toilet soaps, having tailored properties, to blend together various fatty acids to achieve desirable characteristics and lessen the undesirable ones.

[8] = Amine soaps: dilution with water and gelling (Example 5); format: physicochemical; details: triethylamine soap; diluted slowly with water, C21 soap down to 25% solids
Protocol: The C21 dicarboxylic acid-amine soaps were also prepared using diethanolamine and monoethanol amine.

[9] = Fluidity and gelling of soaps (general description); format: physicochemical; details: potassium soap
Excerpt: The C21 dicarboxylic acid soaps are made by neutralizing the C21 dicarboxylic acid. The neutralizing agent used is based on the solubility characteristics desired in the soap and economic considerations. The neutralizing agents contemplated include those of the following cations, sodium, potassium, lithium and ammonium. These cations may be obtained from such inorganic alkalis as caustic soda, caustic potash, and soda ash. Another cation which may be used is the ammonium cation. Organic amines may also be used, specifically amines such as triethylamine, monoethylamine, diethylamine, and alkanolamines, such as ethanolamine, triethanolamine and diethanolamine. The soaps made from the above listed neutralizing agents are all liquid at temperatures as low as 30° F.
For example, the potassium soap of oleic acid is a viscous fluid at about 18% solids and gels at 19%-20% solids. However, the potassium soap of oleic acid blended with 40% C21 dicarboxylic acid potassium soap is very fluid at 30 to 40% solids. This general characteristic of increased solubility is advantageous to all soap users for economy in shipping and handling. It also allows for cuts in production costs in applications where water is removed from the final product, since less water is added with the soap when a C21 dicarboxylic acid soap is used. […]

[10] = cation K, 40 percent solids in water

5 carboxy-4-hexyl-2-cyclohexene-1-octanoic acid and 6 carboxy-4-hexyl-2 cyclohexene-1-octanoic acid [C21 dicarboxylic acid]
gelling [1]: does not gel | water-solubility of partly neutralized acid [2]: water-soluble | pH of formulation [3]: about 9 | compatibility of pine oil with soap formulation ([3]; listed as C21 dicarboxylic acid soap): compatible | compatibility of pine oil with soap formulation ([3]; listed as C21 dicarboxylic acid soaps): very compatible | precipitation ([3]; sodium hydroxide formulation, storage): no signs of precipitating after three months | state of liquid soap [3]: very fluid | viscosity of blends with oleic acid soap and coconut soap [4]: low viscosity blends | water solubility compared with soaps of conventional fatty acids [5]: water soluble at higher solids content | Characteristics ([5]; cation K, 20 percent solids in water): Solution | Characteristics ([5]; cation K, 80 percent solids in water): Viscous solution | Characteristics ([5]; cation Li, 10 percent solids in water): Solution | Characteristics ([5]; cation Na, 20 percent solids in water): Solution | Characteristics ([5]; cation Na, 65 percent solids in water): Viscous solution

CCCCCCCCCC(=O)O [Decanoic acid (C10), Decanoic acid]
highest solids soaps that are still fluid at room temperature [6]: 40%

CCCCCCCCCCCC(=O)O [Lauric acid (C12), Lauric acid]
Characteristics ([5]; cation K, 33 percent solids in water): Viscous solution | Characteristics ([5]; cation K, 36 percent solids in water): Gel | highest solids soaps that are still fluid at room temperature [6]: 35%

CCCCCCCCC(=O)O [Nonanoic acid (G9), Nonanoic acid]
Characteristics ([5]; cation K, 35 percent solids in water): Viscous solution | Characteristics [5, 10]: Gel

CCCCCCCC(=O)O [Octanoic acid (C8), Octanoic acid]
Characteristics [5, 10]: Viscous solution | Characteristics ([5]; cation K, 45 percent solids in water): Gel | highest solids soaps that are still fluid at room temperature [6]: 45%

CCCCCCCC/C=C\CCCCCCCC(=O)O [Vegetable derived oleic acid (C18), oleic acid]
Characteristics at 25° C. [7]: Gel

CCCCCCCC/C=C\CCCCCCCC(=O)O [oleic acid]
pH of formulation [3]: about 11 | fluidity of liquid soap ([3]; potassium hydroxide formulation, in place of coconut fatty acids): very viscous soap of questionable utility | state of liquid soap [3]: gels | highest solids soaps that are still fluid at room temperature [6]: 20% | gelling on dilution with water [8]: a gel formed immediately upon the addition of water

CCCCCCCC/C=C\CCCCCCCC(=O)O [potassium soap of oleic acid]
percent solids at which soap is a viscous fluid [9]: about 18 % solids | percentage real soap at which viscosity exceeds twenty centipoises ([4]; potassium soap solution, 25° C.): 16 % real soap
